pIC50: −log10 of the molar value.
What was measured:
[1] = tested on: Notch signaling (LS174T Notch cells); assay: Notch signaling transcriptional activity assay (luciferase reporter, T-REx system); type: cell-based; conditions: Homo sapiens, LS174T, 12 h, read-out: IC50 of Notch signal inhibitory activity (luciferase)
From the text: We constructed a cell-based reporter assay with the T-Rex system to evaluate Notch signaling inhibitory activity. Without doxycycline (Dox), the tetracycline repressor (TetR) inhibits the expression of N-terminally FLAG-tagged mouse Notch1(1704–2531), which is 40 aa longer than NICD at the N-terminus. In the presence of Dox, Dox binds to the TetR to release the inhibition of expression of Notch1(1704–2531). Cleavage of Notch1(1704–2531) by γ-secretase generates NICD, which then translocates to the nucleus and forms a heterotrimer with RBP-J driving luciferase transcription (Fig. 2). This assay cells (LS174T Notch cells) was stably incorporated with pGL4.20 luciferase plasmid which has 12 × RBP-J binding site (12 copies of […])-β-globin promoter. Cell viability was measured using a fluorometric microculture cytotoxicity assay. […] The composition of the G. speciosa MeOH extract was partitioned successively with hexane, EtOAc, nBuOH, and water.
Figure 2 The T-REx assay system. Without Dox, expression of Notch1(1704–2531) is suppressed by TetR. The addition of Dox inactivates TetR to initiate expression of Notch1(1704–2531), which is then cleaved by endogenous γ-secretase to form NICD. NICD then translocates to the nucleus and forms a heterotrimer with RBP-J and MAML that binds to a 12× RBP-J binding site to drive luciferase expression. Luciferase activity was detected as Notch signaling pathway activity. Dox: doxycycline, TetR: tetracycline repressor, Luc.: luciferase.
Assay cells (LS174T Notch cells: 2 × 10^4 cells/well) were incubated in a 96-well white plate at 37 °C for 12 h. After incubation, 50 ng/mL Dox was added to each well to induce expression of exogenous Notch1(1704–2531) protein. After incubation at 37 °C for 12 h, the medium was changed to Dox-free medium containing individual samples. Luciferase activity was measured after treatment at 37 °C for 12 h. Cell viability was evaluated by the FMCA method at the same time. These assays were performed in 0.1% DMSO (n = 3). Error bars represent SD.
In a 96-well white plate, Cells (LS174T Notch cells; 2 × 10^4 cells per well) were cultured at 37 °C for 12 h. To express Notch1(1704–2531) protein in the cells, doxycycline (50 ng/mL) was added to each well, and cells were cultured at 37 °C for 12 h. Medium was changed to doxycycline-free medium containing each sample, then cells were incubated with at 37 °C for 12 h. A microplate luminometer (Thermo Fisher Scientific Inc., Waltham, USA) and the Bright-Glo™ Luciferase Assay System (Promega Co., Madison, USA) were used for measurement of Luciferase activity. Fluorometric Microculture Cytotoxicity Assay (FMCA) was used for measurement of cell viability of the sample-treated cells. After incubation of assay cells (2×10^4 cells per well) in a 96-well black plate at 37 °C for 24 h, samples addition was performed at the same time as the luciferase assay. The assay cells were cultures at 37 °C for 12 h. A fluorescence plate reader (Thermo Fisher Scientific Inc., Waltham, USA) was used for determination of cell viability by FMCA.

[2] = tested on: HEK293 cells; assay: Cytotoxicity test, FMCA; type: cell-based, human; conditions: 72 h
Experimental: (§1) The medium was exchanged to fresh medium with different concentrations of compound and cells were incubated for 72 h.

[3] = Cytotoxicity test, FMCA; type: cell-based, human; conditions: human, HEK293 cells, FMCA, read-out: IC50 cytotoxicity 293
Experimental: as §1

[4] = tested on: HES5; assay: Western blot in assay cells; type: cell-based; conditions: LS174T Notch cells, 12 h
Experimental: (§2) After another 12 h incubation with 50 ng/mL Dox, and cells were washed with PBS. Medium was changed to fresh medium with 2 and incubated for 12 h. […] (C–F) Relative protein levels analyzed by densitometry. […] P values were analyzed by Student’s t test.
(§3) Before another 12 h incubation, 50 ng/mL of doxycycline was added into each dish. Then, medium was changed to fresh medium with each compound. After 12 h incubation, cells were washed with PBS (500 μL) twice and then cells were collected by scraping. Using lysis buffer (20 mM Tris-HCl pH 7.4, 150 mM NaCl, 0.5% sodium deoxycholate, 10 mM EDTA, 1 mM sodium orthovanadate, and 0.1 mM NaF) containing a 1% […] inhibiotor cocktail (Nacalai Tesque, Tokyo, Japan), protein lysate was prepared. Protein lysates were separated by a 7.5%, 10%, 12.5% and 15% SDS-PAGE electrophoresis. Proteins were then transferred to a PVDF membrane (Bio-Rad Laboratories, Inc. Hercules, USA) electrophoretically. The membrane was incubated for 1 h with TBST (10 mM Tris-HCl pH 7.4, 100 mM NaCl and 0.1% Tween 20) containing 5% skimmed milk. […]

[5] = tested on: HES1; assay: Western blot in assay cells; type: cell-based; conditions: LS174T Notch cells, 12 h
Experimental: as §2, §3

## COc1c(O)cc2oc3cc(O)c(CC=C(C)C)c(O)c3c(=O)c2c1C/C=C(\C)CCC=C(C)C [Compound 2, cowanin]
[1]
  pIC50: 5.62
[2]; 10 μM
  viability of normal human embryonic kidney 293 cells: not affected
[2]; 20 μM
  cytotoxicity on 293 cells: cytotoxicity was detected
[3]
  IC50 at 72 h: 15.1 µM
[4]
  expression of HES5: reduced
[5]
  expression of HES1: reduced

Source: PMC5876388 (Scientific Reports, 2018)
